Where a name gives a salt, the structure may show the parent alone.
Biological target: T1, AR (Homo sapiens, UniProt P10275)
T1 construct: endogenous in cells; host or cells: VCaP cells
T1 sequence (P10275 1-920): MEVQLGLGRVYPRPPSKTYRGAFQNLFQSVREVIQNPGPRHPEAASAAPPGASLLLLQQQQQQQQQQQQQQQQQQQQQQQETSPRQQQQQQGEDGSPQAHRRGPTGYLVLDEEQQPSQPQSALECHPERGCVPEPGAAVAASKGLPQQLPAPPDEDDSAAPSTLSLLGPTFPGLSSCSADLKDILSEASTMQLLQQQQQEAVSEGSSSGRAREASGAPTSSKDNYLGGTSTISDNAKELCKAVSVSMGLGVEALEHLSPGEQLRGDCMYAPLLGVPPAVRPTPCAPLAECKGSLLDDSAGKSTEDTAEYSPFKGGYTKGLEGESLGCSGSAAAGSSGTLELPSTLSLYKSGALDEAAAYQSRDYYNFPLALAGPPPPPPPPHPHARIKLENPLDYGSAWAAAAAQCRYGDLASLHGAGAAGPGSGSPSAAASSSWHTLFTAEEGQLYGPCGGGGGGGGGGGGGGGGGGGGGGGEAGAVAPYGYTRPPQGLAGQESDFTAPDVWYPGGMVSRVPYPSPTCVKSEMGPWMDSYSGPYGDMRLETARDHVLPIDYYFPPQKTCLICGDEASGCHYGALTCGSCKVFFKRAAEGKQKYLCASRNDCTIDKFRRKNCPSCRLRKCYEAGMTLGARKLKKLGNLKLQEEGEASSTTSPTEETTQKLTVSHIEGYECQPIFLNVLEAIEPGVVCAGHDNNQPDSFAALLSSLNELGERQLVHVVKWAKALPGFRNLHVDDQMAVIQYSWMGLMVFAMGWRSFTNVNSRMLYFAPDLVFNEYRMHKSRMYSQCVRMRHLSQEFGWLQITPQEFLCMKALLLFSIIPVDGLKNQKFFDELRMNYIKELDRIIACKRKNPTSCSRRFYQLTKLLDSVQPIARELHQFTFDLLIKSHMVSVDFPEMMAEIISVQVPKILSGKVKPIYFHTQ
Test: VCAP AR Degradation Assay
Assay type: cell-based
Conditions: VCaP cells, 24 h, AR ELISA; for DC50: concentration of compound when AR level = 50% of DMSO control; for Y: lowest measured AR level normalized to DMSO control (AR degradation efficiency)
Experimental: VCAP AR Degradation Assay. Test compounds were pre-dispensed into a Corning CellBind 96-well clear bottom plate (Cat #3300) using an acoustic dispenser to make a 10-point concentration series at 1:3 dilution for each compound. The final top concentration of each compound was 5 μM. DMSO at a final concentration of 0.1% was used as a control. VCaP cells cultured in DMEM with 8% fetal bovine serum (FBS) were seeded at 50K cells per well in a 200 μL volume into the compound plate and incubated at 37° C. in a CO2 incubator for 24 h. The medium was carefully removed from the cells and the plate was placed on ice. One hundred μL of ice-cold 1× cell lysis buffer from Cell Signaling Technologies (Cat #9803) was added to each well of the cells and the plate was incubated at 4° C. on a shaker for 1 h. Fifteen μL of cell lysate was used for AR ELISA detection using a PathScan Total Sandwich AR ELISA kit (Cell Signaling Technology, Cat #12580). AR levels in compound-treated wells were normalized to that of DMSO control and expressed as percent of control (PoC) (y). A Four Parameter Logistic Model (Sigmoidal Dose-Response Model) was used to determine the compound's DC50, and EC50, using the following equation: […]
The lowest measured AR level normalized to DMSO control in response to compound treatment, termed Y value, was used to characterize the compound-mediated AR degradation efficiency.

Compound | DC50 | Y | Y (hydrochloride)
C[C@@H]1CN(CCO[C@H]2CC[C@H](N3C(=S)N(c4ccc(C#N)c(C(F)(F)F)c4)C(=O)C3(C)C)CC2)C[C@H](C)N1CC(=O)Nc1ccc(C2(C)CCC(=O)NC2=O)cn1 (single isomer, unassigned) [Cmpd 5, hydrochloride] | > 200 nM | *** (40%<Y<80%) | –
C[C@@H]1CN(CCO[C@H]2CC[C@H](N3C(=S)N(c4ccc(C#N)c(C(F)(F)F)c4)C(=O)C3(C)C)CC2)C[C@H](C)N1CC(=O)Nc1ccc(C2(C)CCC(=O)NC2=O)cn1 (single isomer, unassigned) [Cmpd 6, hydrochloride] | > 200 nM | *** (40%<Y<80%) | –
C[C@@H]1CN(CCCO[C@H]2CC[C@H](N3C(=S)N(c4ccc(C#N)c(C(F)(F)F)c4)C(=O)C3(C)C)CC2)C[C@H](C)N1CC(=O)Nc1cc(N2CCC(=O)NC2=O)ccn1 (single isomer, unassigned) [Cmpd 7, hydrochloride] | > 200 nM | *** (40%<Y<80%) | –
C[C@@H]1CN(CCO[C@H]2CC[C@H](N3C(=S)N(c4ccc(C#N)c(C(F)(F)F)c4)C(=O)C3(C)C)CC2)C[C@H](C)N1CC(=O)Nc1cc(C2(C)CCC(=O)NC2=O)ccn1 (single isomer, unassigned) [Cmpd 8, hydrochloride] | ≤ 5 nM | – | * (0<Y≤20%)
C[C@@H]1CN(CCO[C@H]2CC[C@H](N3C(=S)N(c4ccc(C#N)c(C(F)(F)F)c4)C(=O)C3(C)C)CC2)C[C@H](C)N1CC(=O)Nc1cc(C2(C)CCC(=O)NC2=O)ccn1 (single isomer, unassigned) [Cmpd 9, hydrochloride] | ≤ 5 nM | – | ** (20%<Y≤40%)
C[C@@H]1CN(CCO[C@H]2CC[C@H](N3C(=S)N(c4ccc(C#N)c(C(F)(F)F)c4)C(=O)C3(C)C)CC2)C[C@H](C)N1CC(=O)Nc1cc(C2CCC(=O)NC2=O)ccn1 (stereo partly drawn) [Cmpd 1, 2-((2R,6S)-4-(2-((trans-4-(3-(4-Cyano-3-(trifluoromethyl)phenyl)-5,5-dimethyl-4-oxo-2-thioxoimidazolidin-1-yl)cyclohexyl)oxy)ethyl)-2,6-dimethylpiperazin-1-yl)-N-(4-(2,6-dioxopiperidin-3-yl)pyridin-2-yl)acetamide hydrochloride] | 5 to 50 nM | ** (20%<Y≤40%) | –
C[C@@H]1CN(CCO[C@H]2CC[C@H](N3C(=S)N(c4ccc(C#N)c(C(F)(F)F)c4)C(=O)C3(C)C)CC2)C[C@H](C)N1CC(=O)Nc1ccc(C2CCC(=O)NC2=O)cn1 (stereo partly drawn) [Cmpd 2, 2-((2R,6S)-4-(2-((trans-4-(3-(4-Cyano-3-(trifluoromethyl)phenyl)-5,5-dimethyl-4-oxo-2-thioxoimidazolidin-1-yl)cyclohexyl)oxy)ethyl)-2,6-dimethylpiperazin-1-yl)-N-(5-(2,6-dioxopiperidin-3-yl)pyridin-2-yl)acetamide hydrochloride] | 5 to 50 nM | ** (20%<Y≤40%) | –
C[C@@H]1CN(CCO[C@H]2CC[C@H](N3C(=S)N(c4ccc(C#N)c(C(F)(F)F)c4)C(=O)C3(C)C)CC2)C[C@H](C)N1CC(=O)Nc1ccc(N2CCC(=O)NC2=O)cn1 [Cmpd 3, 2-((2R,6S)-4-(2-((trans-4-(3-(4-Cyano-3-(trifluoromethyl)phenyl)-5,5-dimethyl-4-oxo-2-thioxoimidazolidin-1-yl)cyclohexyl)oxy)ethyl)-2,6-dimethylpiperazin-1-yl)-N-(5-(2,4-dioxotetrahydropyrimidin-1(2H)-yl)pyridin-2-yl)acetamide hydrochloride] | > 200 nM | *** (40%<Y<80%) | –
C[C@@H]1CN(CCO[C@H]2CC[C@H](N3C(=S)N(c4ccc(C#N)c(Cl)c4)C(=O)C3(C)C)CC2)C[C@H](C)N1CC(=O)Nc1cc(C2CCC(=O)NC2=O)ccn1 (stereo partly drawn) [Cmpd 4, 2-((2R,6S)-4-(2-((trans-4-(3-(3-Chloro-4-cyanophenyl)-5,5-dimethyl-4-oxo-2-thioxoimidazolidin-1-yl)cyclohexyl)oxy)ethyl)-2,6-dimethylpiperazin-1-yl)-N-(4-(2,6-dioxopiperidin-3-yl)pyridin-2-yl)acetamide hydrochloride] | 5 to 50 nM | ** (20%<Y≤40%) | –
C[C@@H]1CN(CCCO[C@H]2CC[C@H](N3C(=S)N(c4ccc(C#N)c(C(F)(F)F)c4)C(=O)C3(C)C)CC2)C[C@H](C)N1CC(=O)Nc1ccc(C2CCC(=O)NC2=O)cn1 (stereo partly drawn) [Cmpd 10, 2-((2R,6S)-4-(3-((trans-4-(3-(4-Cyano-3-(trifluoromethyl)phenyl)-5,5-dimethyl-4-oxo-2-thioxoimidazolidin-1-yl)cyclohexyl)oxy)propyl)-2,6-dimethylpiperazin-1-yl)-N-(5-(2,6-dioxopiperidin-3-yl)pyridin-2-yl)acetamide hydrochloride] | > 200 nM | *** (40%<Y<80%) | –
C[C@@H]1CN(CCO[C@H]2CC[C@H](N3C(=S)N(c4ccc(C#N)c(C(F)(F)F)c4)C(=O)C3(C)C)CC2)C[C@H](C)N1CCOc1ccc(N2CCC(=O)NC2=O)cn1 [Cmpd 11, 4-(3-(trans-4-(2-((3R,5S)-4-(2-((5-(2,4-Dioxotetrahydropyrimidin-1(2H)-yl)pyridin-2-yl)oxy)ethyl)-3,5-dimethylpiperazin-1-yl)ethoxy)cyclohexyl)-4,4-dimethyl-5-oxo-2-thioxoimidazolidin-1-yl)-2-(trifluoromethyl)benzonitrile hydrochloride] | > 200 nM | *** (40%<Y<80%) | –
C[C@@H]1CN(CCO[C@H]2CC[C@H](N3C(=S)N(c4ccc(C#N)c(C(F)(F)F)c4)C(=O)C3(C)C)CC2)C[C@H](C)N1CCCOc1ccc(N2CCC(=O)NC2=O)cn1 [Cmpd 12, 4-(3-(trans-4-(2-((3R,5S)-4-(3-((5-(2,4-Dioxotetrahydropyrimidin-1(2H)-yl)pyridin-2-yl)oxy)propyl)-3,5-dimethylpiperazin-1-yl)ethoxy)cyclohexyl)-4,4-dimethyl-5-oxo-2-thioxoimidazolidin-1-yl)-2-(trifluoromethyl)benzonitrile hydrochloride] | > 200 nM | *** (40%<Y<80%) | –
C[C@@H]1CN(CCCO[C@H]2CC[C@H](N3C(=S)N(c4ccc(C#N)c(C(F)(F)F)c4)C(=O)C3(C)C)CC2)C[C@H](C)N1CC(=O)Nc1cc(C2CCC(=O)NC2=O)ccn1 (stereo partly drawn) [Cmpd 13, 2-((2R,6S)-4-(3-((trans-4-(3-(4-Cyano-3-(trifluoromethyl)phenyl)-5,5-dimethyl-4-oxo-2-thioxoimidazolidin-1-yl)cyclohexyl)oxy)propyl)-2,6-dimethylpiperazin-1-yl)-N-(4-(2,6-dioxopiperidin-3-yl)pyridin-2-yl)acetamide hydrochloride] | ≤ 5 nM | *** (40%<Y<80%) | –
C[C@@H]1CN(CCCC[C@H]2CC[C@H](N3C(=S)N(c4ccc(C#N)c(C(F)(F)F)c4)C(=O)C3(C)C)CC2)C[C@H](C)N1CC(=O)Nc1cc(C2CCC(=O)NC2=O)ccn1 (stereo partly drawn) [Cmpd 14, 2-((2R,6S)-4-(4-(trans-4-(3-(4-Cyano-3-(trifluoromethyl)phenyl)-5,5-dimethyl-4-oxo-2-thioxoimidazolidin-1-yl)cyclohexyl)butyl)-2,6-dimethylpiperazin-1-yl)-N-(4-(2,6-dioxopiperidin-3-yl)pyridin-2-yl)acetamide hydrochloride] | 5 to 50 nM | * (0<Y≤20%) | –
C[C@@H]1CN(CCO[C@H]2CC[C@H](N3C(=S)N(c4ccc(C#N)c(C(F)(F)F)c4)C(=O)C3(C)C)CC2)C[C@H](C)N1CCOc1cc(C2CCC(=O)NC2=O)ccn1 (stereo partly drawn) [Cmpd 15, 4-(3-(trans-4-(2-((3R,5S)-4-(2-((4-(2,6-Dioxopiperidin-3-yl)pyridin-2-yl)oxy)ethyl)-3,5-dimethylpiperazin-1-yl)ethoxy)cyclohexyl)-4,4-dimethyl-5-oxo-2-thioxoimidazolidin-1-yl)-2-(trifluoromethyl)benzonitrile hydrochloride] | 5 to 50 nM | *** (40%<Y<80%) | –

Source: patent publication US20250100995A1, “CEREBLON BINDING COMPOUNDS, COMPOSITIONS THEREOF, AND METHODS OF TREATMENT THEREWITH” (CELGENE CORPORATION, priority 2021, published 2025)
